Reference: article PMC10611796, “The α-synuclein PET tracer [18F] ACI-12589 distinguishes multiple system atrophy from other neurodegenerative diseases” (Nature Communications, 2023)

Biological target: T1, α-synuclein (Homo sapiens, UniProt P37840)
T1 construct: gene SNCA; pathological α-syn aggregates in post-mortem human brain tissue
Test: radioligand saturation binding (autoradiography and radiobinding) on human brain tissue; displacement by unlabeled ACI-12589; micro-autoradiography

## ACI-12589
  Kd: 0.0335 ± 0.0174 µM
